Target: recombinant human PAI-1 (Homo sapiens, UniProt P05121)
Assay: Test Example 2: Human PAI-1 Inhibitory Activity (pH 7.4 HEPES buffer, 10 minutes incubation with two-chain tPA)
Type: biochemical
Set-up: purchased Molecular Innovations, Inc
Settings: read-out: Inhibition Rate of PAI-1 Activity (%)
Procedure: 0.1 M HEPES, 0.1 M NaCl. 1 mM EDTA. 0.1 % Polyethylene glycol 8,000 (Hampton Research Corporation),
2 mM Dimethyldecylphoshine oxide [Apo-10] (Fluka Corporation)

Sequence of recombinant human PAI-1 (P05121 24-402): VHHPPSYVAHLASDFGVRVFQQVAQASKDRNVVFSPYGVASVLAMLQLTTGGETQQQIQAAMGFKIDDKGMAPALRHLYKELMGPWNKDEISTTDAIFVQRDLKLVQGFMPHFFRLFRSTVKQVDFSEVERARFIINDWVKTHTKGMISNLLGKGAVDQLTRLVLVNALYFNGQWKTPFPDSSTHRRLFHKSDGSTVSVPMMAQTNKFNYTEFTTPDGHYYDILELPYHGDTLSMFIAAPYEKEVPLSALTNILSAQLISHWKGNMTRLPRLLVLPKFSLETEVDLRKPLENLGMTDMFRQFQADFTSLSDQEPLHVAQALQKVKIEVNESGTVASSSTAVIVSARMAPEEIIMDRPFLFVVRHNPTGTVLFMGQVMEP

Row | SMILES | inhibition at 0.1 µM [%] | inhibition at 0.3 µM [%] | inhibition at 1 µM [%] | inhibition at 3 µM [%]
1 | CC(C)(C)c1ccc(-c2ccc(OCC(=O)O)c(Oc3cccc(C(C)(C)C)c3)c2)cc1 [Compound 465] | 10 | 17 | 87 | 98
2 | CC(C)(C)c1ccc(Oc2cc(-c3ccccc3OC(F)(F)F)ccc2/C=C/C(=O)O)cc1 [Compound 466] | 4 | 9 | 88 | > 99
3 | CC(C)(C)c1ccc(Oc2cc(-c3ccccc3OC(F)(F)F)ccc2CCC(=O)O)cc1 [Compound 467] | 2 | 6 | 73 | > 99
4 | CCCCOc1ccc(-c2ccc(OCC(=O)O)c(Oc3ccc(C(C)(C)C)cc3)c2)cc1 [Compound 468] | 1 | 5 | 86 | 97
5 | CC(C)(C)c1ccc(Oc2cc(-c3ccc4ccccc4c3)ccc2/C=C/C(=O)O)cc1 [Compound 469] | 4 | 22 | 96 | > 99
6 | CC(C)(C)c1ccc(Oc2cc(-c3ccc4ccccc4c3)ccc2CCC(=O)O)cc1 [Compound 470] | 3 | 16 | 87 | > 99
7 | CC(C)(C)c1ccc(Oc2cc(-c3ccc(C#N)cc3)ccc2OCC(=O)O)cc1 [Compound 471] | 5 | 7 | 11 | 49
8 | CCCCOc1cccc(Oc2cc(-c3ccc(OC(F)(F)F)cc3)ccc2CCC(=O)O)c1 [Compound 472] | 15 | 14 | 71 | > 99
9 | CC(C)(C)Oc1ccc(Oc2cc(-c3ccc(OC(F)(F)F)cc3)ccc2CCC(=O)O)cc1 [Compound 473] | 15 | 9 | 26 | > 99
10 | O=C(O)CCc1ccc(-c2ccc(OC(F)(F)F)cc2)cc1Oc1ccc(C(F)(F)F)cc1 [Compound 474] | 2 | 11 | 43 | > 99
11 | CCC(C)(C)c1ccc(Oc2cc(-c3ccc(OC(F)(F)F)cc3)ccc2CCC(=O)O)cc1 [Compound 475] | 4 | 27 | 94 | > 99
12 | O=C(O)CCc1ccc(-c2ccc(OC(F)(F)F)cc2)cc1Oc1ccc2ccccc2c1 [Compound 476] | 0 | 3 | 65 | > 99
13 | O=C(O)/C=C/c1ccc(-c2ccc(OC(F)(F)F)cc2)cc1Oc1ccc(OC(F)(F)F)cc1 [Compound 477] | 7 | 21 | 60 | > 99
14 | CC(C)(C)c1ccc(-c2ccc(/C=C/C(=O)O)c(Oc3ccc(OC(F)(F)F)cc3)c2)cc1 [Compound 478] | 11 | 33 | 90 | > 99
15 | O=C(O)CCc1ccc(-c2ccc(OC(F)(F)F)cc2)cc1Oc1ccc(OC(F)(F)F)cc1 [Compound 479] | 17 | 14 | 70 | > 99
16 | CC(C)(C)c1ccc(-c2ccc(CCC(=O)O)c(Oc3ccc(OC(F)(F)F)cc3)c2)cc1 [Compound 480] | 17 | 22 | 80 | > 99
17 | CCCCc1ccc(Oc2cc(-c3ccc(OC(F)(F)F)cc3)ccc2OCC(=O)O)cc1 [Compound 481] | 19 | 16 | 70 | > 99
18 | CC(CCOc1ccc(-c2ccc(OC(F)(F)F)cc2)cc1OCc1ccc(C(C)(C)C)cc1)C(=O)O (stereo not shown) [Compound 482] | 7 | 12 | 52 | > 99
19 | CC(C)(C)c1ccc(Oc2cc(-c3cc(Cl)ccc3Cl)ccc2/C=C/C(=O)O)cc1 [Compound 483] | 0 | 8 | 76 | > 99
20 | CC(C)(C)c1ccc(Oc2cc(-c3cc(Cl)ccc3Cl)ccc2CCC(=O)O)cc1 [Compound 484] | 0 | 7 | 73 | > 99
21 | CC(C)(C)c1ccc(Oc2cc(-c3cccc([N+](=O)[O-])c3)ccc2OCC(=O)O)cc1 [Compound 485] | 0 | 6 | 11 | 69
22 | O=C(O)/C=C/c1ccc(-c2ccc(OC(F)(F)F)cc2)cc1OCCCOCc1ccccc1 [Compound 487] | 0 | 3 | 26 | 98

Row | SMILES | inhibition at 0.1 µM [%] | inhibition at 0.3 µM [%] | inhibition at 1 µM [%] | inhibition at 3 µM [%]
23 | O=C(O)CCc1ccc(-c2ccc(OC(F)(F)F)cc2)cc1OCCCOCc1ccccc1 [Compound 488] | 0 | 10 | 36 | 91
24 | O=C(O)/C=C/c1ccc(-c2ccc(OC(F)(F)F)cc2)cc1OCCCSc1ccccc1 [Compound 489] | 12 | 14 | 69 | > 99
25 | CC(C)c1ccccc1Oc1cc(-c2ccc(OC(F)(F)F)cc2)ccc1/C=C/C(=O)O [Compound 490] | 6 | 13 | 91 | > 99
26 | CC(C)c1ccccc1Oc1cc(-c2ccc(OC(F)(F)F)cc2)ccc1CCC(=O)O [Compound 491] | 6 | 10 | 66 | > 99
27 | O=C(O)COc1ccc(-c2ccc(OC(F)(F)F)cc2)cc1Oc1ccc(OCc2ccccc2)cc1 [Compound 492] | 5 | 20 | > 99 | > 99
28 | Cc1cc(C)cc(Oc2cc(-c3ccc(C(C)(C)C)cc3)ccc2/C=C/C(=O)O)c1 [Compound 494] | 9 | 24 | 87 | 92
29 | CC(C)(C)c1ccc(Oc2cc(-c3ccc(C(C)(C)C)cc3)ccc2/C=C/C(=O)O)cc1 [Compound 495] | 8 | 64 | 98 | > 99
30 | Cc1cc(C)cc(-c2ccc(/C=C/C(=O)O)c(Oc3ccc(C(C)(C)C)cc3)c2)c1 [Compound 496] | 4 | 9 | 85 | > 99
31 | CC(C)(C)c1ccc(Oc2cc(-c3ccc(C(C)(C)C)cc3)ccc2CCC(=O)O)cc1 [Compound 497] | 3 | 24 | > 99 | > 99
32 | Cc1cc(C)cc(-c2ccc(CCC(=O)O)c(Oc3ccc(C(C)(C)C)cc3)c2)c1 [Compound 498] | 1 | 4 | 44 | > 99
33 | Cc1cc(C)cc(Oc2cc(-c3ccc(C(C)(C)C)cc3)ccc2CCC(=O)O)c1 [Compound 499] | 15 | 14 | 77 | 98
34 | CC(Oc1cc(-c2ccc(OC(F)(F)F)cc2)ccc1/C=C/C(=O)O)c1ccccc1 (stereo not shown) [Compound 500] | 19 | 14 | 25 | 80
35 | CC(Oc1cc(-c2ccc(OC(F)(F)F)cc2)ccc1CCC(=O)O)c1ccccc1 (stereo not shown) [Compound 501] | 12 | 0 | 12 | 83
36 | CC(C)(C)c1ccc(Oc2cc(-c3cccc(OC(F)(F)F)c3)ccc2/C=C/C(=O)O)cc1 [Compound 503] | 13 | 27 | 97 | 93
37 | CC(C)(C)c1ccc(Oc2cc(-c3cccc(OC(F)(F)F)c3)ccc2CCC(=O)O)cc1 [Compound 504] | 13 | 26 | 91 | > 99
38 | CCCCc1ccc(-c2ccc(Oc3ccc(C(C)(C)C)cc3)c(OCC(=O)O)c2)cc1 [Compound 505] | 0 | 33 | > 99 | > 99
39 | O=C(O)/C=C/c1ccc(-c2ccc(OC(F)(F)F)cc2)cc1OC(c1ccccc1)c1ccccc1 [Compound 506] | 2 | 9 | 78 | > 99
40 | O=C(O)CCc1ccc(-c2ccc(OC(F)(F)F)cc2)cc1OC(c1ccccc1)c1ccccc1 [Compound 507] | 6 | 8 | 49 | > 99
41 | O=C(O)CCc1ccc(-c2ccc(OC(F)(F)F)cc2)cc1OCCCSc1ccccc1 [Compound 508] | 18 | 9 | 48 | 98
42 | CC(C)c1ccc(Oc2cc(-c3ccc(OC(F)(F)F)cc3)ccc2/C=C/C(=O)O)cc1 [Compound 509] | 1 | 22 | 96 | > 99
43 | CC(C)c1ccc(Oc2cc(-c3ccc(OC(F)(F)F)cc3)ccc2CCC(=O)O)cc1 [Compound 510] | 0 | 8 | 84 | > 99
